Starred links: 1 amine or outer side, 2 acyl side, 3 side chain; linkers in the order of their positions; H or OH if unused. Non-standard residues stand in square brackets, D forms with d. Residues, ends and D or L forms follow the SMILES beside them. Groups on a side chain read outwards from the residue. *: point of attachment. Ethylenediamine = C(CN[*:2])N[*:1]; Hyp = O=C(O)[C@@H]1C[C@@H](O)CN1; Phg = N[C@H](C(=O)O)c1ccccc1; CO = O=C([*:1])[*:2]; Bn = c1ccc(C*)cc1
What was measured:
QT interval = conditions: in vivo; cited from earlier work
[1] = tested on: cardiac repolarization in healthy volunteers; test: Thorough QT/QTc (TQT) study (NCT04795479), cardiodynamic Holter ECG
From the text: These studies included a randomized, partial double-blind, placebo- and positive-controlled, multiple-dose, 4-way crossover, thorough QT/QTc (TQT) study to investigate the effect of relacorilant on cardiac repolarization. These studies measured placebo-corrected change-from-baseline QTcF (ΔΔQTcF); change-from-baseline of QTcF, HR, and PR and QRS intervals (ΔQTcF, ΔHR, ΔPR, and ΔQRS); placebo-corrected change-from-baseline of HR, and PR and QRS intervals (ΔΔHR, ΔΔPR, and ΔΔQRS); categorical outliers for QTcF, HR, and PR and QRS intervals; the frequency of treatment-emergent changes of T-wave morphology and presence of U-waves; PK parameters of relacorilant and its metabolites (CORT125337, CORT125336, and CORT125295) and moxifloxacin; safety profiles, including AEs/SAEs, physical examination, clinical chemistry, hematology, urinalysis, ECG, and vital signs.
A phase 1, randomized, partial double-blind, crossover thorough QT study (NCT04795479) to assess the effect of multiple doses of relacorilant on cardiac repolarization in healthy volunteers. Participants were randomized to dosing sequences to receive relacorilant at therapeutic (400 mg QD, n=25) or supra-therapeutic (800 mg QD, n=28) doses, or placebo (n=29) for 5 days. Moxifloxacin (400 mg single dose, n=28) was used as a positive control.
Each subject received 4 treatments in a randomized sequence during the study period. Each dosing consisted of 8 capsules (except for moxifloxacin on Day 5), including: • Treatment T: Multiple oral doses of 400 mg relacorilant (4 capsules)+placebo for relacorilant (4 capsules) once daily for 5 days; • Treatment ST: Multiple oral doses of 800 mg relacorilant (8 capsules) once daily for 5 days; • Treatment P: Multiple oral doses of placebo for relacorilant (8 capsules) once daily for 5 days; • Treatment M: Multiple oral doses of placebo for relacorilant (8 capsules) once daily for 4 days and a final single oral dose of 400 mg moxifloxacin (one tablet) on Day 5.
In a portion of present study conducted in healthy subjects, a single dose of moxifloxacin (400 mg; Treatment M) on the last day of its respective treatment period was included as a positive control to determine the sensitivity of the study to detect small QTc changes. Relacorilant doses included both a therapeutic dose level (400 mg; Treatment T) and a supra-therapeutic dose level (800 mg; Treatment ST). The study was blinded to subjects, investigator, study staff, and sponsor with respect to relacorilant (Treatments T and ST) and placebo for relacorilant (Treatment P); it was open-labeled for moxifloxacin (Treatment M). Enrolled subjects were randomized to one of twelve (12) dosing sequences to receive 4 different treatments according to the assigned dosing sequence as shown below:
In each period, subjects were admitted to the clinical site in the morning of Day-1 and stayed in the site until the morning of Day 6. In the study periods when subjects were randomized to Treatment T, ST, or P, the applicable study product (400 mg or 800 mg relacorilant or placebo for relacorilant) were taken once daily in the morning for 5 consecutive days. During the dosing period of positive control (Treatment M), placebo for relacorilant were administered on Days 1 to 4 to align with the dosing schedule for the other three treatments and moxifloxacin were administered in an open-labeled manner as a single dose in the morning of Day 5. Therefore, the treatment on Days 1 to 4 were double-blinded; it was not known before the morning on Day 5 whether or not a subject was allocated to receive moxifloxacin. Each dosing period (from Periods 2 to 4) was separated from the previous period by a washout period of at least 10 days from Day 6 of the previous period to Day 1 (first dose) of the subsequent period to prevent a carryover effect. The final visit was on Day 6 of Period 4. A safety phone follow-up was scheduled at 7 days (±2 days) post the final visit/early termination (ET) visit.

[2] = Plasma concentrations in TQT study (LC-MS/MS, non-compartmental PK); assay type: in vivo, human; conditions: human, plasma, oral; 400 mg single dose; read-out: Geometric Mean Cmax
Procedure: PK analyses were performed using non-compartmental methods to obtain estimates of the following parameters, where possible: […] Day 1: Cmax, Tmax, AUClast, and AUC0-24; Day 5: Cmax, Tmax, Cmin, AUClast, AUC0-tau, Cavg, FI, and AR. For moxifloxacin: Cmax, Tmax, AUClast, and AUC0-24. […] PK blood sampling for Day 1 was completed prior to dosing on Day 2.

CC(=O)N1CCN(c2ccc(OC[C@@H]3CO[C@@](Cn4ccnc4)(c4ccc(Cl)cc4Cl)O3)cc2)CC1 [levoketoconazole]
effect on QT interval (literature) (QT interval): associated with QT interval prolongation

COc1c(N2C[C@@H]3CCCN[C@@H]3C2)c(F)cc2c(=O)c(C(=O)O)cn(C3CC3)c12 [moxifloxacin, 1-cyclopropyl-7-[(S,S)-2,8-diazabicyclo[4.3.0]non-8-yl]-6-fluoro-8-methoxy-1,4-dihydro-4-oxo-3 quinoline carboxylic acid, reference compound]
LS mean (90% CI) ΔΔQTcF, peak value ([1]; 400 mg on day 5, 1.5 hours post-dose): 10.7 (7.3, 14.1) msec | QT effect of positive control ([1]; 400 mg single dose): expected QT prolongation | LS mean (90% CI) ΔQTcF ([1]; 400 mg single dose on day 5, 1 hour post-dose): 5.7 (3.3, 8.2) msec | LS mean (90% CI) ΔQTcF, maximum observed value ([1]; 400 mg single dose on day 5, 16 hours post-dose): 9.7 (7.2, 12.2) msec | ΔΔQTcF Estimate (msec) (90% CI), predicted at geometric mean Cmax ([1]; 400 mg single dose, PK/QTc population): 8.90 (5.96, 11.85)^2 msec | lower bound of the 90% CI around the LS mean ΔΔQTcF ([1]; 400 mg, at 4 of the 12 post-dose time points): exceeded 5 msec | Cmax [2]: 1870 ng/mL | effect on QT interval (literature) (QT interval): prolong the QT interval of the electrocardiogram in some patients

N#Cc1ccc([C@H]2CCc3cncn32)c(F)c1 [osilodrostat]
effect on QT interval (literature) (QT interval): associated with QT interval prolongation

NCCCC[C@@H]1NC(=O)[C@@H](Cc2c[nH]c3ccccc23)NC(=O)[C@H](c2ccccc2)NC(=O)[C@@H]2C[C@@H](OC(=O)NCCN)CN2C(=O)[C@H](Cc2ccccc2)NC(=O)[C@H](Cc2ccc(OCc3ccccc3)cc2)NC1=O [pasoreotide] (cyclo([Hyp]([CO-Ethylenediamine])[Phg][dW]KY(Bn)F))
effect on QT interval (literature) (QT interval): associated with QT interval prolongation

Source: patent publication US20240197716A1, “TREATMENTS FOR CUSHING'S SYNDROME THAT DO NOT SIGNIFICANTLY AFFECT CARDIAC RHYTHMS” (Corcept Therapeutics Incorporated, priority 2022, published 2024)
